# Values quoted from earlier work as cited in patent US20030157192A1, “Low temperature disinfectant/sterilant for medical devices and topical applications” (Healthpoint, Ltd., priority 2002, published 2003).
# Legend:
# [1] = room temperature; low pH
# mouse skin = conditions: tested on mouse skin
Structure (SMILES),minimum time required to pass the AOAC Sporicidal Test [1] [h],tumor promotion (mouse skin)
"OO [6% hydrogen peroxide, hydrogen peroxide]",≥ 6,
CC(=O)OO [Peracetic acid],,tumor-promoting agent
